# From ChEMBL document CHEMBL1141788, “Dendridine A, a bis-indole alkaloid from a marine sponge Dictyodendrilla Species” (2005)
# Assays:
# Format in all cases: functional
# Micrococcus luteus = assay: Antibacterial activity against Micrococcus luteus
# Cryptococcus neoformans = assay: Antifungal activity against Cryptococcus neoformans
# Bacillus subtilis = assay: Antibacterial activity against Bacillus subtilis
smiles,measurement,setting,value
NCCc1c[nH]c2c(O)cc(Br)c(-c3c(Br)cc(O)c4[nH]cc(CCN)c34)c12 [DENDRIDINE A],MIC,Micrococcus luteus,4.2 µg/mL
same,MIC,Cryptococcus neoformans,8.3 µg/mL
same,MIC,Bacillus subtilis,8.3 µg/mL
